Converted amounts (≈) assume the structure as drawn. Where only a bound is given, the exact number is not on record here.

For test [1], the system named is Mycobacterium tuberculosis. As to the kind of experiment: Antitubercular activity against Mycobacterium tuberculosis H37Rv ATCC 27294 after 5 days by resazurin microtitre assay. The following applies: H37Rv ATCC 27294, 120 h. Format: functional.
Test [2] in a line: Inhibition of Mycobacterium tuberculosis H37Rv glutamine synthetase expressed in Escherichia coli GJ4745 after 1 hr.
The test system of a further test is A549. The test can be described thus: Cytotoxicity against human A549 cells after 72 hrs by resazurin reduction assay. Format: cell-based. The conditions noted are these: A549, 72 h.
The nature of test [3]: Selectivity ratio of IC50 for human A549 cells to MIC for Mycobacterium tuberculosis H37Rv ATCC 27294. Format: functional.

As usually defined, the MIC is the least concentration at which growth counts as inhibited. Read a low MIC as inhibition by little substance. Usually IC50 stands for the midpoint of a concentration-inhibition curve. A low value points to greater potency in that assay. `COc1ccc2cc(-c3nc(C(C)(C)C)[nH]c3-c3ccnc(F)c3)ccc2c1` returned an MIC in test [1] of 64 µg/mL (≈ 170 µM). In test [2], this compound registered an IC50 of 1.2 µM. `COc1ccc2cc(-c3nc(C)[nH]c3-c3ccncc3)ccc2c1`: the IC50 in test [2] was greater than 25 µM.

As to `COc1ccc2cc(-c3nc(C(C)(C)C)[nH]c3-c3ccncc3)ccc2c1`, the minimum inhibitory concentration (MIC) in test [1] was greater than 32 µg/mL. In addition, the concentration for half-maximal inhibition (IC50) in test [2] was 3.1 µM.

Regarding `COc1ccc2cc(-c3nc(COCc4ccccc4)[nH]c3-c3ccncc3)ccc2c1`, the IC50 in test [2] was greater than 25 µM. Compound `CC(C)(C)c1nc(-c2cnc3ccccc3c2)c(-c2ccncc2)[nH]1` yielded a minimal inhibitory concentration (MIC) in test [1] greater than 32 µg/mL. `COc1ccc2cc(-c3nc(C(C)(C)C)[nH]c3-c3ncccn3)ccc2c1` came in with a 50% inhibitory concentration (IC50) in test [2] greater than 25 µM. As to `COc1ccc2cc(-c3nc(-c4ccc[nH]4)[nH]c3-c3ccncc3)ccc2c1`, in test [2], the 50% inhibitory concentration (IC50) is greater than 25 µM. `COc1ccc2cc(-c3nc(-c4ccccc4)[nH]c3-c3ccncc3)ccc2c1` displayed an IC50 in test [2] greater than 25 µM. Take `CNc1cc(-c2[nH]c(C(C)(C)C)nc2-c2ccc3cc(OC)ccc3c2)ccn1`: inhibition of growth in test [1] (MIC) required 8 µg/mL (≈ 20.7 µM). In addition, 5.2 µM corresponded to half-maximal inhibition in test [2] (IC50).

Regarding `CCc1nc(-c2ccc3cc(OC)ccc3c2)c(-c2ccncc2)[nH]1`, the minimal inhibitory concentration (MIC) in test [1] is greater than 32 µg/mL. Further, in test [2], inhibition was half-maximal at 2.2 µM (IC50).

As for `COc1ccc2cc(-c3nc(C(C)(C)C)[nH]c3-c3ccccc3)ccc2c1`, in test [2], the half-inhibitory concentration (IC50) is greater than 25 µM. Take `COc1ccc2cc(-c3nc(-c4cccc(O)c4)[nH]c3-c3ccncc3)ccc2c1`: the IC50 in test [2] is greater than 25 µM. For the compound `COc1ccc2cc(-c3nc(C(C)(C)C)[nH]c3-c3cncnc3)ccc2c1`, the IC50 in test [2] is greater than 25 µM. The same measure, in the same setting: to `COc1ccc2cc(-c3nc(C(C)(C)C)[nH]c3-c3ccnc(N(C)C)c3)ccc2c1` belongs greater than 25 µM. The same measure, in the same setting: the figure for `COc1ccc2cc(-c3nc(C(C)(C)c4ccccc4)[nH]c3-c3ccncc3)ccc2c1` is greater than 25 µM.

For the compound `COc1ccc2cc(-c3nc(CO)[nH]c3-c3ccncc3)ccc2c1`, the half-inhibitory concentration (IC50) in test [2] was greater than 25 µM. Same read-out and setting: to `COc1ccc2cc(-c3nc[nH]c3-c3ccncc3)ccc2c1` belongs greater than 25 µM.

In turn, `COc1ccc2cc(-c3nc(C(C)(C)C)[nH]c3-c3ccnc(N)c3)ccc2c1` gave a half-inhibitory concentration (IC50) with A549 of 24.7 µM. This compound also displayed a minimum inhibitory concentration (MIC) in test [1] of 2 µg/mL (≈ 5.37 µM). Moreover, in test [3], the “Ratio IC50” value is 5.

Source of the values: ChEMBL document CHEMBL2029286, “Trisubstituted imidazoles as Mycobacterium tuberculosis glutamine synthetase inhibitors” (J Med Chem, 2012).
